Assay results published in patent publication US20220105147A1, “CROTON LECHLERI COMPOSITIONS FOR USE IN THE TOPICAL TREATMENT OF ACUTE BACTERIAL SKIN OR SKIN STRUCTURE INFECTION” (priority 2019, published 2022).
Values after ≈ are worked out from the molar mass of the structure shown.

Key:
[1] = tested on: MSSA and MRSA strains (Mupirocin-resistant and Mupirocin-susceptible); test: In vitro MIC, panel of MSSA and MRSA strains; format: cell-based, Staphylococcus aureus; settings: for MIC: Staphylococcus aureus
From the text: (§1) Measures included the minimum inhibitory concentration (MIC) which is the lowest concentration of AB-101 that prevents visible growth of the bacterium or pathogen, and minimum bactericidal concentration (MBC) which is the lowest concentration of an antibacterial agent required to kill a bacterium.

[2] = tested on: Enterococcus faecalis (ATCC 29212); test: Agar Well Diffusion Assay (K-B disks); format: cell-based; settings: EFAECL; K-B disk, 25 uL, dilutions in DMSO; width of zone; one value per test date
Method: An Agar Well Diffusion Assay pilot evaluation of AB-101 BRM was conducted to seek an initial signal of the activity of AB-101 BRM against various bacteria. AB-101 BRM was tested against the following bacterial species: • Streptococcus pneumoniae (ATCC 49619) (SPNEU) Gram (+) • Streptococcus pyogenes (clinical isolate) (GABHS) Gram (+) • Enterococcus faecalis (ATCC 29212) (EFAECL) Gram (+) • Coagulase-negative Staphylococcus (clinical isolate) (CNS) Gram (+) • Escherichia coli (ATCC 25922) (EC) Gram (−) • Pseudomonas aeruginosa (ATCC 27853) (PAER) Gram (−) • Klebsiella pneumoniae (ATCC 700603) (KPNEU) Gram (−) • Staphylococcus aureus (ATCC […]) (SAUR) Gram (+) • Methicillin-resistant Staphylococcus aureus (ATCC 49476) (MRSA) Gram (+)
Isolates were subcultured the day before the Agar Well Diffusion Assay was performed. On the day of the assay, a bacterial suspension (0.08-0.12 MacFarland units) of each bacteria isolate was made in Trypticase Soy Broth (TSB), and these suspensions were used to plate a lawn of bacterial organisms on Mueller-Hinton agar or Mueller-Hinton sheep's blood agar. A control antibiotic Kirby-Bauer (K-B) disk plus K-B disks containing 25 uL of AB-101 dilutions were placed on the plates, and the plates were incubated overnight. The next day, the width of the zone of growth inhibition surrounding each K-B disk was recorded (in mm). […]

[3] = tested on: MSSA and MRSA strains (Mupirocin-resistant and Mupirocin-susceptible); test: In vitro MBC, panel of MSSA and MRSA strains; format: cell-based, Staphylococcus aureus; settings: purified extract of taspine
From the text: as §1

[4] = ATCC 29213 / MRSA / MSSA, strain ATCC 29213, QC control

`C/C(=C\C(=O)OCCCCCCCCC(=O)O)C[C@@H]1OC[C@H](C[C@@H]2O[C@H]2[C@@H](C)[C@H](C)O)[C@@H](O)[C@H]1O` [Mupirocin] was tested, and the MIC [1, 4] was 0.25 to 0.5 µg/mL (≈ 0.499 to 0.999 µM), the MIC ([1]; strain 1674606, MupirocinR, MSSA) was over 256 µg/mL and the MIC ([1]; strain 1674607, MupirocinR, MRSA) was over 256 µg/mL. For the same compound, the MIC ([1]; strain CDC 227, MupirocinS, MRSA) was 0.25 to 0.5 µg/mL (≈ 0.499 to 0.999 µM), the MIC ([1]; strain CDC 462, MupirocinS, MSSA) was at most 0.25 µg/mL and the MIC ([1]; strain CDC 464, MupirocinS, MSSA) was at most 0.25 µg/mL. The MIC ([1]; strain CDC 484, MupirocinS, MSSA) was at most 0.25 µg/mL and the MIC ([1]; strain CDC 485, MupirocinS, MSSA) was at most 0.25 µg/mL.
For `COc1cccc(OC)c1C(=O)N[C@@H]1C(=O)N2[C@@H]1SC(C)(C)[C@@H]2C(=O)O` [Methicillin], the MIC [1, 4] was 1 to 2 µg/mL (≈ 2.63 to 5.26 µM).
With `CC1(C)S[C@@H]2[C@H](NC(=O)[C@H](N)c3ccccc3)C(=O)N2[C@H]1C(=O)O` [AMP, Ampicillin] the “Zone of Inhibition (MM)” value [2] was “AMP 8 MM”.
In the case of Gentamicin [GM], the “Zone of Inhibition (MM)” value [2] is reported as “GM 5 MM”.
With `COc1ccc2c(=O)oc3c(OC)cc(CCN(C)C)c4c(=O)oc1c2c34` [Taspine, taspine] the “activity against MSSA and MRSA (MIC)” value ([1]; highest concentration tested 50% relative to AB-101 = 10 μg/mL) was “does not have activity” and the “activity against MSSA and MRSA (MBC)” value [3] was “does not have activity”.
